Read-outs that look alike come from different tables or passages of the source.
Assays:
AR2 cells (HepG2-AR2) [1] = system: AR2 cells (HepG2-AR2)
Procedure: (§1) For antagonist mode and cytotoxicity data, well-level normalized response (resp) was calculated as: resp=100 * RLU−bval/pval−bval where pval is the median RLU value of the MEC positive control wells (minimum four wells).

AR2 cells (HepG2-AR2) [2] = assay: Alamar Blue (resazurin) post hoc cell viability / cytotoxicity assay in AR2 cells; conditions: spid Viability, sheet antagonist_fits; for hill_tp (Hill model top): 0 where win_model is Constant
Procedure: as §1

human AR [3] = molecular target: T1, human AR (Homo sapiens, UniProt P10275); assay: AR2 assay, agonist mode: ligand-dependent AR homodimerization (NanoBiT luciferase complementation) in stable HepG2-AR2 cells; format: cell-based; conditions: sheet agonist_fits; for hill_tp: Hill model top (efficacy), 0 given where win_model is Constant; for max_med: maximum median response; for win_model: winning concentration-response model (Constant, Hill, Gain-Loss);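 for hill tp: Log2 fold change of luminescence over DMSO vehicle wells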;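 for max med: Log2 fold change of luminescence over DMSO vehicle wells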
T1 sequence (P10275 1-920) 1: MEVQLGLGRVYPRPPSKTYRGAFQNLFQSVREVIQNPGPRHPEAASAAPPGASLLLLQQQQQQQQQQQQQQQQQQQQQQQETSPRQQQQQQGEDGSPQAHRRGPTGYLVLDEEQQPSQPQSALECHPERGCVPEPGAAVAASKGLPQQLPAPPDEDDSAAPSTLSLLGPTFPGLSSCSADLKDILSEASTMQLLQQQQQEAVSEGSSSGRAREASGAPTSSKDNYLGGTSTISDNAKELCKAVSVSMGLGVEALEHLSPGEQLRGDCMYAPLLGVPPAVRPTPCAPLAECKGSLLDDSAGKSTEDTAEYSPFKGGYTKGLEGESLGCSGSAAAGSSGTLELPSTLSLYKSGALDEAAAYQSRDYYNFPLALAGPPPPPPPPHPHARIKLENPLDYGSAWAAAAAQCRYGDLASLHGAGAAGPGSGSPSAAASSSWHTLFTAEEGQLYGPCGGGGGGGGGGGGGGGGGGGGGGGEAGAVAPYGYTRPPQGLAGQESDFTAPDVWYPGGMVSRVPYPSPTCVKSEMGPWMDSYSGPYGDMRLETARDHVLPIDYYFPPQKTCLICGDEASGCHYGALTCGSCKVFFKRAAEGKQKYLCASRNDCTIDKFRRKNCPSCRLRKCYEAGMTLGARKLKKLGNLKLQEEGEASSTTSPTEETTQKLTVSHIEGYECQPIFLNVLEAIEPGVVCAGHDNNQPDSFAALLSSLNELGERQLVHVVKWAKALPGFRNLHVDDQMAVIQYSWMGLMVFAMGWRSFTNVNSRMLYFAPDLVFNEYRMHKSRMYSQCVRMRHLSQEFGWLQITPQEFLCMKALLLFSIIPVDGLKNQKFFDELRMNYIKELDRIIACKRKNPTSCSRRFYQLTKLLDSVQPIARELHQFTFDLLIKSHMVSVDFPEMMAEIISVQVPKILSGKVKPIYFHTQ
T1 sequence (P10275 1-920) 2: T1 sequence (P10275 1-920) 1

AR = system: AR; design: method as in Kleinstreuer et al., 2017; conditions: 2017, cited from earlier work; for Agonist reference: AR agonist reference class ref Kleinstreuer et al.; for Antagonist reference: AR antagonist reference class ref Kleinstreuer et al.
human AR [4] = molecular target: T1, human AR; assay: cell-based; design: species or system AR2 cells (HepG2-AR2); NanoLuc complementation AR homodimerization, antagonist mode, loss of agonist-induced luminescence, AC50 by Hill fit; conditions: hill_ga, antagonist mode, 10 nM agonist stimulus, 18 h, no CYP expressed
human AR [5] = molecular target: T1, human AR; assay: AR2 assay, antagonist mode: disruption of R1881 (10 nM)-induced AR homodimerization in HepG2-AR2 cells; format: cell-based; conditions: spid AR_antagonist, sheet antagonist_fits; for hill_gw (Hill model slope) / hill_tp (Hill model top): 0 where win_model is Constant

Structure (SMILES) | hill_ga (Hill model log AC50) (AR2 cells (HepG2-AR2) [1]) | max_med (maximum median response) (AR2 cells (HepG2-AR2) [2]) | hill_tp (Hill model top) (AR2 cells (HepG2-AR2) [2]) | also measured
CC(C)(C)C(=O)C(Oc1ccc(Cl)cc1)n1cncn1 (stereo not shown) [Triadimefon] | -3.878 | 19.918 | 58.3985 | 
O=c1c(-c2ccc(O)cc2)coc2cc(O)ccc12 [Daidzein] |  | 12.142 | 8.263 | hill_tp (human AR [3]): 0; max_med (human AR [3]): 0.1579; win_model (human AR [3]): Constant; Agonist reference (AR; Supplementary Table S1): Inactive; AC50 (human AR [4]; spid=Bgal): 59.8 µM; AC50 (human AR [4]; spid=No_RNA): 46.5 µM; max_med (maximum median response) (human AR [5]): 67.6764; win_model (winning concentration-response model) (human AR [5]): Hill; hill_gw (Hill model slope) (human AR [5]): 1.585; hill_tp (Hill model top) (human AR [5]): 87.2882
Nc1nc[nH]n1 [Amitrole] | 1.008 | 20.9539 | 26.1033 | 
ClC(Cl)=C(c1ccc(Cl)cc1)c1ccc(Cl)cc1 [p,p'-DDE] | 1.812 |  |  | Antagonist reference (AR; Supplementary Table S1): Weak
C=C1C[C@@H]2[C@H](CC[C@]3(C)C(=O)CC[C@@H]23)[C@@]2(C)C=CC(=O)C=C12 [Exemestane] |  |  |  | hill_tp (Hill model top) (AR2 cells (HepG2-AR2) [1]): 0; max_med (maximum median response) (AR2 cells (HepG2-AR2) [1]; spid Viability, sheet antagonist_fits): 7.414
O=[N+]([O-])c1ccc(O)c([N+](=O)[O-])c1 [2,4-Dinitrophenol] |  | 17.6561 | 19.403 | hill_tp (human AR [3]): 0; max_med (human AR [3]): 0.06149; win_model (human AR [3]): Constant; AC50 (human AR [4]; spid=Bgal): 61.4 µM; AC50 (human AR [4]; spid=No_RNA): 35.8 µM; max_med (maximum median response) (human AR [5]): 41.2653; win_model (winning concentration-response model) (human AR [5]): Hill; hill_gw (Hill model slope) (human AR [5]): 1.229; hill_tp (Hill model top) (human AR [5]): 60.4053
CCOC(=O)c1ccc(O)cc1 [Ethylparaben] | 0 | 6.202 | 0 | 
CC(C)(C)CC(C)(C)c1ccc(O)cc1 [4-(1,1,3,3-Tetramethylbutyl)phenol] | 1.5 | 99.7722 | 100.987 | 
CCC(C)(c1ccc(O)cc1)c1ccc(O)cc1 [Bisphenol B] | 1.739 | 49.2471 | 49.223 | 
C#CCOS(=O)OC1CCCCC1Oc1ccc(C(C)(C)C)cc1 (stereo not shown) [Propargite] | 0.5083 | 5.892 | 5.298 | 
CCOC(=O)c1ccccc1C(=O)OCC [Diethyl phthalate] | 0.07147 | 22.6345 | 17.9391 | 
CCNc1nc(Cl)nc(NC(C)C)n1 [Atrazine] | 1.242 | 11.6649 | 7.792 | Agonist reference (AR): Inactive; Antagonist reference (AR): Inactive; Agonist reference (AR; Supplementary Table S1): Inactive; Antagonist reference (AR; Supplementary Table S1): Inactive
CC/C(=C(\c1ccc(O)cc1)c1ccc(OCCN(C)C)cc1)c1ccccc1 [Afimoxifene (4-Hydroxytamoxifen)] |  | 99.7378 | 99.9149 | hill_tp (human AR [3]): 0; max_med (human AR [3]): 0.04316; win_model (human AR [3]): Constant; AC50 (human AR [4]; spid=Bgal): 7.28 µM; AC50 (human AR [4]; spid=No_RNA): 5.39 µM; max_med (maximum median response) (human AR [5]): 104.395; win_model (winning concentration-response model) (human AR [5]): Hill; hill_gw (Hill model slope) (human AR [5]): 3.209; hill_tp (Hill model top) (human AR [5]): 105.037
O=C1c2ccccc2C(=O)N1SC(Cl)(Cl)Cl [Folpet] | 1.483 | 26.2456 | 26.8665 | 
Oc1ccc(C(c2ccc(O)cc2)(C(F)(F)F)C(F)(F)F)cc1 [Bisphenol AF] | 1.485 | 99.8528 | 100.2 | 
Clc1ccc(C(c2ccc(Cl)cc2)C(Cl)Cl)cc1 [p,p'-DDD] | 1.74 |  |  | hill_tp (Hill model top of curve) (AR2 cells (HepG2-AR2) [1]; human, 18 h): 93.5622; max_med (maximum median response) (AR2 cells (HepG2-AR2) [1]; human, 18 h): 93.2611
COP(=O)(OC)O/C(=C\Cl)c1cc(Cl)c(Cl)cc1Cl [Z-Tetrachlorvinphos] |  | 16.5553 |  | hill_tp (human AR [3]): 0; max_med (human AR [3]): 0.08626; win_model (human AR [3]): Constant; AC50 (human AR [4]; spid=Bgal): 28.8 µM; AC50 (human AR [4]; spid=No_RNA): 28.9 µM; max_med (maximum median response) (human AR [5]): 94.4561; win_model (winning curve-fit model) (human AR [5]; Constant = no concentration response): Hill; hill_gw (Hill model slope/Hill coefficient) (human AR [5]; Hill fit parameter): 1.437; hill_tp (Hill model top of curve) (human AR [5]; Hill fit parameter): 113.966; hill_tp (Hill model top of curve) (AR2 cells (HepG2-AR2) [2]; Hill fit parameter): 16.4592
CCCCOC(=O)c1ccccc1C(=O)OCCCC [Dibutyl phthalate] | 1.084 | 27.2383 | 28.3952 | 
O=c1cc(-c2ccc(O)cc2)oc2cc(O)cc(O)c12 [Apigenin] | 1.291 | 44.3137 | 57.4844 | 
Clc1ccc(C(c2ccccc2Cl)C(Cl)(Cl)Cl)cc1 (stereo not shown) [o,p'-DDT] | 1.826 |  |  | Agonist reference (AR): Inactive; Antagonist reference (AR): Weak; Antagonist reference (AR; Supplementary Table S1): Weak; hill_tp (Hill model top of curve) (AR2 cells (HepG2-AR2) [1]; human): 110.666; max_med (maximum median response) (AR2 cells (HepG2-AR2) [1]; human): 83.8839
CNc1cnn(-c2cccc(C(F)(F)F)c2)c(=O)c1Cl [Norflurazon] | 0 | 4.6212 | 0 | 
CC1(C)C(C=C(Cl)Cl)C1C(=O)OC(C#N)c1cccc(Oc2ccccc2)c1 (stereo not shown) [Cypermethrin] | 0 | 5.609 | 0 | Agonist reference (AR): Inactive
C=CC1(C)OC(=O)N(c2cc(Cl)cc(Cl)c2)C1=O (stereo not shown) [Vinclozolin] | -3.255 | 15.9864 | 12.9726 | Antagonist reference (AR): Weak; Antagonist reference (AR; Supplementary Table S1): Weak
CCNc1nc(Cl)nc(NCC)n1 [Simazine] | -0.7451 | 12.6117 | 7.295 | Antagonist reference (AR): Inactive
CC(C)NC(=O)N1CC(=O)N(c2cc(Cl)cc(Cl)c2)C1=O [Iprodione] | 0 | 9.628 | 0 | Agonist reference (AR; Supplementary Table S1): Inactive
CC(C)(c1ccccc1)c1ccc(O)cc1 [4-Cumylphenol] | 1.81 | 99.676 |  | 
CC1(C)C(C=C(Cl)Cl)C1C(=O)OC(C#N)c1ccc(F)c(Oc2ccccc2)c1 (stereo not shown) [Cyfluthrin] | 0 | 9.8887 | 0 | Agonist reference (AR): Inactive
OC(c1ccc(Cl)cc1)(c1cncnc1)c1ccccc1Cl (stereo not shown) [Fenarimol] | 0 | 16.9049 | 0 | Agonist reference (AR): Inactive; Antagonist reference (AR): Weak; Antagonist reference (AR; Supplementary Table S1): Weak
N#Cc1c(Cl)cccc1Cl [Dichlobenil] | 0 | 10.2924 | 0 | 

From PMC10112521, “High-throughput AR dimerization assay identifies androgen disrupting chemicals and metabolites” (Frontiers in Toxicology, 2023)
